Common to all, as to assay: NCI tumour cell line growth inhibition, 48 h
The test system of assay [1] is 786-0 renal.
Assay [2] relates to ACHN renal.
Assay [3] deals with NCI-H23 lung.
Assay [4] relates to SK-MEL-2 melanoma.
The test system of assay [5] is SK-OV-3 ovarian.
The test system of assay [6] is SN12C renal.
Assay [7] deals with UACC-62 melanoma.
Assay [8] concerns UO-31 renal.
Assay [9] has as its system K-562 leukemia.

Values joined by “and” are separate entries in the source; they are usually repeats but may differ in a detail not shown here. Equal values may be shown once.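 1) Cells in 96-well plates. 2) Compound, 48 h, 5 concentrations. 3) Linear interpolation between surrounding doses. 4) Unreached endpoint = highest concentration. Here, GI50 denotes the concentration required for 50% inhibition of growth. Definition used: TGI = concentration required for complete inhibition of growth.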 Where only a bound is given, the exact number is not on record here.

The source of these data is PubChem BioAssay (NCI).

In the case of `Cc1ccc2nc(NC(=O)C(=O)C(C(=O)c3ccc4ccccc4c3)C3OC(=O)c4ccccc43)sc2c1` (stereo not given), the TGI in assay [1] is 18.5 µM; in assay [2], 46.1 µM; in [3], 18.3 µM; in assay [4], 29.3 µM; in assay [5], more than 100 µM; in assay [6], 31.6 µM. In addition, the TGI in [7] turned out to be 25 µM; in assay [8], 28.6 µM.
With `O=S(=O)(C1=CC(S(=O)(=O)c2ccccc2)COC1)c1ccccc1` (stereo not given), the TGI in assay [1], in assay [2], in assay [9], in assay [3], in assay [4] and in assay [5] was more than 100 µM each time. The TGI in assay [6], in assay [7] and in assay [8] was more than 100 µM throughout.
For `c1ccc2c(c1)[nH]c1cnc3c4ncccc4[nH]c3c12`, the TGI in assay [1], in assay [2], in assay [9], in assay [3], in [4] and in [5] was more than 100 µM throughout. Also, the TGI in assay [6], in assay [7] and in [8] was more than 100 µM each time.
As to `CC(C)N(C(=O)C12C3C4C1C1C2C3C41C(=O)C(C)(C)C)C(C)C` (stereo not given), the TGI in [1], in assay [2], in assay [9], in assay [3], in assay [4] and in assay [5] was more than 100 µM in each case. The TGI in assay [6], in [7] and in [8] was more than 100 µM each time.
Turning to `Nc1cn(C2OC(CC(c3ccccc3)(c3ccccc3)c3ccccc3)C(O)C2O)c(=O)[nH]c1=O` (stereo not given), the TGI was 59.1 µM in assay [1]; more than 100 µM in assay [2]; 54.4 µM in assay [9]; 65.8 µM in [3]; more than 100 µM in assay [4]; 98.2 µM in [5]. Moreover, the TGI in [6] was 49.4 µM; in [7], 28.5 µM; in assay [8], more than 100 µM.
As to `O=C1C=CC2(CCCCCCC2=O)CC1` (stereo not given), the TGI in [1], in assay [2], in [5], in [6], in [7] and in assay [8] was more than 100 µM throughout.
As to `NC1=NN(c2ccccc2)C(=O)C1C(=O)C(=O)Nc1ccc(Cl)cc1` (stereo not given), the TGI in assay [1], in assay [2], in [9], in assay [3], in assay [4] and in assay [5] was more than 100 µM each time. The TGI in assay [6], in assay [7] and in assay [8] was more than 100 µM each time.
For `Cc1noc2cccc(O)c12`, the TGI in [1], in assay [2], in [9], in [3], in assay [4] and in [5] was more than 100 µM each time. Besides, the TGI in [6], in assay [7] and in assay [8] was more than 100 µM each time.
As for `CC(=O)OC1C[C@H]2C(OC(=O)c3ccccc3)C3C4(OC(C)=O)COC4C[C@H](OC(C)=O)[C@@]3(C)C(OC(C)=O)[C@H](OC(C)=O)C(=C1C)C2(C)C` (stereo not given in full), the TGI was more than 100 µM in assay [1]; more than 100 µM in assay [2]; more than 100 µM in assay [9]; more than 100 µM in assay [3]; 97.8 µM in assay [4]; more than 100 µM in assay [5]. Besides, the results for the TGI in assay [6], in [7] and in [8] were more than 100 µM, more than 100 µM and 79.8 µM, respectively.
Take `NC(CCSCC(F)(F)F)C(=O)O` (stereo not given): the TGI in assay [1], in [2], in assay [9], in assay [3], in assay [6] and in assay [7] was more than 100 µM in each case. The same molecule registered a TGI in assay [8] of more than 100 µM.
As for `O=C(CCc1nc(=S)[nH][nH]1)Nc1cc(Cl)ccc1Cl`, the TGI in assay [1], in [2], in assay [9], in assay [3], in [4] and in assay [5] was more than 100 µM throughout. In addition, the TGI in assay [6], in assay [7] and in [8] was more than 100 µM throughout.
`C/C(=C1/N=C(c2cc([N+](=O)[O-])ccc2Cl)N(c2ccc(Br)cc2)C1=O)c1ccc(N(CCC#N)CCC#N)cc1C`: the TGI is more than 100 µM in assay [1]; more than 100 µM in assay [2]; 29.3 µM in assay [9]; more than 100 µM in assay [3]; more than 100 µM in [4]; more than 100 µM in [5]. In addition, the TGI was more than 100 µM in [6], 97.5 µM in assay [7] and more than 100 µM in assay [8].
For the molecule `O=C(Nc1cccc(C(F)(F)F)c1)C(=O)C(C(=O)c1ccc(Cl)c(Cl)c1)C1OC(=O)c2ccccc21` (stereo not given), the TGI in assay [1], in assay [2], in assay [9], in assay [3], in assay [5] and in assay [6] was more than 100 µM each time. The TGI in [7] was 88.3 µM; in assay [8], more than 100 µM.
With `O=C1OC(CC(=O)c2ccc(F)cc2)C(Cl)=C1Cl` (stereo not given), the TGI was 34.3 µM in assay [1]; more than 100 µM in [2]; more than 100 µM in assay [9]; 93.5 µM in [3]; 45 µM in [4]; more than 100 µM in assay [5]. Besides, the values for the TGI in [6], in [7] and in assay [8] were 35.3 µM, 32.2 µM and 38.5 µM, respectively.
On to `O=C(NCCCCCCCCCCCCNC(=O)c1cnc2ccccc2n1)c1cnc2ccccc2n1`, for which the TGI in assay [1] is more than 100 µM; in [2], more than 100 µM; in [9], more than 100 µM; in [4] it was more than 100 µM; in assay [5], 55.5 µM; in [6] it was more than 100 µM. The TGI was more than 100 µM in assay [7] and 86.1 µM in [8].
As to `C/C(NNC(=O)c1ccccc1O)=C1\C=Nc2ccccc2S1`, the TGI in assay [1] was 29.3 µM; in assay [2], more than 100 µM; in assay [9], more than 100 µM; in [3], more than 100 µM; in [4], 6.79 µM; in [5] it was more than 100 µM. Further, the figures for the TGI in assay [6], in assay [7] and in [8] were 55.6 µM, 9.61 µM and 5.68 µM, respectively.
Turning to `COC(=O)C(=O)C(CC(=O)Nc1cc(Cl)ccc1Cl)C(=O)OC` (stereo not given), the TGI in [1], in assay [2], in [9], in assay [3], in assay [4] and in assay [5] was more than 100 µM throughout. In addition, the TGI in [6], in assay [7] and in assay [8] was more than 100 µM throughout.
With `C#CCN(N=O)C(=O)NC(CCCCNC(=O)OCc1ccccc1)C(=O)OCc1ccccc1` (stereo not given), the TGI is 32.5 µM in assay [1]; more than 100 µM in [2]; 50.5 µM in assay [9]; more than 100 µM in [3]; more than 100 µM in assay [4]; more than 100 µM in [5]. Besides, the TGI in assay [6] is 97.9 µM; in assay [7] it was more than 100 µM; in [8], 87 µM.
For `CCOC(=O)c1oc2c(OC)ccc3c2c1CCC3`, the TGI in [1], in assay [2], in [9], in assay [3], in assay [4] and in [5] was more than 100 µM each time. The TGI in assay [6], in [7] and in assay [8] was more than 100 µM in each case.
With `NC(Cc1ccccc1)C(=O)OCN1C(=O)C2C3C=CC(C2C1=O)C1C2C(=O)N(COC(=O)C(N)Cc4ccccc4)C(=O)C2C31` (stereo not given), the TGI in [1] is 38.2 µM and 38 µM; in [2], 59.2 µM and 71.3 µM; in [9] it was 63.2 µM and > 100 µM; in assay [3], 38.1 µM and 42.7 µM; in assay [5] it was > 100 µM and 78.9 µM; in assay [6], 52.7 µM and 43.9 µM. Also, in [7], the TGI was 41.4 µM and 37.7 µM. For the same molecule, the GI50 in assay [8] is 40.6 µM.
On to `CCc1cccc(C(C)C)c1NC(=O)CC1Sc2ccccc2NC1=O` (stereo not given), for which the TGI in assay [1], in assay [2], in assay [9], in [3], in assay [4] and in assay [5] was more than 100 µM throughout. Besides, the TGI in [6] and in [8] was more than 100 µM throughout.
As for `O=C1NC(=O)C(C(=O)C(=O)Nc2cc(Cl)ccc2Cl)C(=O)N1`, the TGI in assay [1], in [2], in assay [9], in assay [3], in assay [4] and in assay [5] was more than 100 µM throughout. In addition, the TGI in assay [7] and in assay [8] was more than 100 µM throughout.
In the case of `O=C1c2c(O)cccc2C(C(=O)CCCCCC(=O)C2c3cccc(O)c3C(=O)c3c(O)cccc32)c2cccc(O)c21`, the TGI in assay [1] was 21.6 µM; in assay [2], 5.71 µM and 16.6 µM; in [9], 25 µM and 12.5 µM; in [3] it was 1.88 µM and 12.9 µM; in assay [4], 3.61 µM and 6.64 µM; in assay [5] it was 4.15 µM and 13.8 µM. Further, the TGI was 9.71 µM and 30 µM in assay [6]; 5.26 µM and 9.46 µM in assay [7]; 3.88 µM and 14.5 µM in assay [8]. Besides, the GI50 is 9.48 µM in assay [2]; 2.86 µM in [9]; 3.94 µM in assay [3]; 1.83 µM in [4]; 6.3 µM in assay [5]; 10.6 µM in assay [6]. The GI50 was 2.22 µM in assay [7] and 7.85 µM in assay [8].
As to `CCCCCCCCSC(=O)NCCCC`, the TGI is more than 100 µM in assay [1]; more than 100 µM in assay [2]; more than 100 µM in assay [9]; more than 100 µM in assay [3]; 45.6 µM in assay [4]; more than 100 µM in assay [5]. For the same molecule, the TGI in assay [6] is more than 100 µM; in assay [7] it was more than 100 µM; in [8], 51.6 µM.
With `CC(Oc1cc2oc(=O)cc(-c3ccccc3)c2cc1Cl)C(=O)O` (stereo not given), the TGI in [1], in assay [2], in assay [9], in assay [3], in assay [5] and in assay [6] was more than 100 µM each time. The TGI in [7] and in assay [8] was more than 100 µM throughout.
For `O/N=C1/CCCC/C1=C/C=C/c1ccccc1`, the TGI was 55 µM in assay [1]; 72.5 µM in [2]; 96.1 µM in assay [9]; 60.5 µM in [3]; 36.6 µM in [4]; more than 100 µM in [5]. Besides, the TGI worked out at 33.4 µM in assay [6], 40.8 µM in [7] and 49.4 µM in assay [8].
As for `CC(=O)OCCOCn1c2ccccc2c2c3c(c4c5ccccc5n(COCCOC(C)=O)c4c21)C(=O)N(Cc1ccccc1)C3=O`, the TGI in assay [1], in [2], in assay [9], in assay [3], in assay [4] and in [5] was more than 100 µM throughout. The TGI in assay [6], in [7] and in assay [8] was more than 100 µM throughout.
For the molecule `NCCOc1ccc(/C(=C(/Cl)c2ccccc2)c2ccccc2)cc1`, the TGI in assay [1] worked out at 20.7 µM; in assay [2] it was 27.2 µM; in assay [9], 14.8 µM; in assay [3], 30.7 µM; in assay [4], 29.1 µM; in assay [5], 31.7 µM. Moreover, the TGI came to 24 µM in assay [6], 25.3 µM in assay [7] and 21.4 µM in assay [8].
For `Cc1ccccc1/C=C/c1csnn1`, the TGI in assay [1], in assay [2], in [9], in assay [3], in assay [4] and in assay [5] was more than 100 µM throughout. Further, the TGI in assay [6], in assay [7] and in [8] was more than 100 µM throughout.
For `CCCCC(C(=O)C(=O)Nc1ccc(C)cc1C)C(=O)C(C)C` (stereo not given), the TGI in assay [1], in [2], in assay [9], in assay [3], in assay [4] and in [6] was more than 100 µM each time. Moreover, the TGI in assay [7] and in assay [8] was more than 100 µM in each case.
